± gives the standard deviation of the averaged measurements.
How the values were obtained:
Experiment in all cases: relative viability vs DMSO control (72 h) (fraction); higher = more viable cells
SK-ES-1 = tested on: SK-ES-1
Outline: (§1)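 Serially diluted compound, 2.5 µl from source plates spanning 10 mM to 0.0002 mM, was added 24 h after sarcoma cell lines were seeded in 384-well plates at densities targeting 80–90% confluence. Plates then sat 72 h at 37 °C, 5% CO2, with 0.1% DMSO vehicle and a 5 µM positive control. Relative viability came from ATPLite as percent growth, averaged over up to triplicate wells, and was rescaled with 1 as full and 0 as none.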

RD = tested on: RD
Outline: as §1

SYO-1 = tested on: SYO-1
Outline: as §1

HT1080 = tested on: HT1080
Outline: as §1

SK-LMS-1 = tested on: SK-LMS-1
Outline: as §1

MES-SA = tested on: MES-SA
Outline: as §1

G401 = tested on: G401
Outline: as §1

SW1353 = tested on: SW1353
Outline: as §1

KHOS-240S = tested on: KHOS-240S
Outline: as §1

SW982 = tested on: SW982
Outline: as §1

RD-ES = tested on: RD-ES
Outline: as §1

VA-ES-BJ = tested on: VA-ES-BJ
Outline: as §1

SMILES: O=C(/C=C\n1cnc(-c2cc(C(F)(F)F)cc(C(F)(F)F)c2)n1)NNc1cnccn1 [Selinexor]
- relative viability (SK-ES-1; 0.00017 µM): 1.05 ± 0.069
- relative viability (SK-ES-1; 0.00051 µM): 1.06 ± 0.027
- relative viability (SK-ES-1; 0.00152 µM): 1.04 ± 0.027
- relative viability (SK-ES-1; 0.00457 µM): 1.05 ± 0.056
- relative viability (SK-ES-1; 0.01372 µM): 0.953 ± 0.026
- relative viability (SK-ES-1; 0.04115 µM): 0.515 ± 0.013
- relative viability (SK-ES-1; 0.1235 µM): 0.0598 ± 0.0042
- relative viability (SK-ES-1; 0.3704 µM): 0.014 ± 0.0012
- relative viability (SK-ES-1; 1.111 µM): 0.0115 ± 0.00044
- relative viability (SK-ES-1; 3.333 µM): 0.0084 ± 0.00046
- relative viability (SK-ES-1; 10 µM): 0.013 ± 0.0011
- relative viability (RD; 0.00017 µM): 1.052 ± 0.0073
- relative viability (RD; 0.00051 µM): 1.08 ± 0.03
- relative viability (RD; 0.00152 µM): 1.09 ± 0.043
- relative viability (RD; 0.00457 µM): 1.07 ± 0.029
- relative viability (RD; 0.01372 µM): 1.01 ± 0.041
- relative viability (RD; 0.04115 µM): 0.943 ± 0.081
- relative viability (RD; 0.1235 µM): 0.754 ± 0.013
- relative viability (RD; 0.3704 µM): 0.51007 ± 0.00012
- relative viability (RD; 1.111 µM): 0.404 ± 0.0056
- relative viability (RD; 3.333 µM): 0.304 ± 0.0051
- relative viability (RD; 10 µM): 0.252 ± 0.0069
- relative viability (SYO-1; 0.00017 µM): 1.02 ± 0.03
- relative viability (SYO-1; 0.00051 µM): 1.02 ± 0.019
- relative viability (SYO-1; 0.00152 µM): 1.02 ± 0.027
- relative viability (SYO-1; 0.00457 µM): 0.928 ± 0.035
- relative viability (SYO-1; 0.01372 µM): 0.804 ± 0.047
- relative viability (SYO-1; 0.04115 µM): 0.63 ± 0.021
- relative viability (SYO-1; 0.1235 µM): 0.534 ± 0.051
- relative viability (SYO-1; 0.3704 µM): 0.41 ± 0.0078
- relative viability (SYO-1; 1.111 µM): 0.25 ± 0.0038
- relative viability (SYO-1; 3.333 µM): 0.136 ± 0.0042
- relative viability (SYO-1; 10 µM): 0.0755 ± 0.017
- relative viability (HT1080; 0.00017 µM): 1.11 ± 0.071
- relative viability (HT1080; 0.00051 µM): 1.14 ± 0.039
- relative viability (HT1080; 0.00152 µM): 1.13 ± 0.04
- relative viability (HT1080; 0.00457 µM): 1.11 ± 0.047
- relative viability (HT1080; 0.01372 µM): 1.082 ± 0.0066
- relative viability (HT1080; 0.04115 µM): 1.088 ± 0.0043
- relative viability (HT1080; 0.1235 µM): 0.814 ± 0.03
- relative viability (HT1080; 0.3704 µM): 0.375 ± 0.014
- relative viability (HT1080; 1.111 µM): 0.3301 ± 0.0015
- relative viability (HT1080; 3.333 µM): 0.2689 ± 0.00085
- relative viability (HT1080; 10 µM): 0.2291 ± 0.0019
- relative viability (SK-LMS-1; 0.00017 µM): 1.03 ± 0.069
- relative viability (SK-LMS-1; 0.00051 µM): 1.03 ± 0.03
- relative viability (SK-LMS-1; 0.00152 µM): 0.98 ± 0.031
- relative viability (SK-LMS-1; 0.00457 µM): 0.95 ± 0.053
- relative viability (SK-LMS-1; 0.01372 µM): 0.856 ± 0.028
- relative viability (SK-LMS-1; 0.04115 µM): 0.736 ± 0.026
- relative viability (SK-LMS-1; 0.1235 µM): 0.512 ± 0.013
- relative viability (SK-LMS-1; 0.3704 µM): 0.319 ± 0.021
- relative viability (SK-LMS-1; 1.111 µM): 0.241 ± 0.019
- relative viability (SK-LMS-1; 3.333 µM): 0.246 ± 0.016
- relative viability (SK-LMS-1; 10 µM): 0.234 ± 0.0084
- relative viability (MES-SA; 0.00017 µM): 1.011 ± 0.0019
- relative viability (MES-SA; 0.00051 µM): 0.985 ± 0.019
- relative viability (MES-SA; 0.00152 µM): 0.971 ± 0.044
- relative viability (MES-SA; 0.00457 µM): 0.965 ± 0.011
- relative viability (MES-SA; 0.01372 µM): 0.911 ± 0.032
- relative viability (MES-SA; 0.04115 µM): 0.808 ± 0.013
- relative viability (MES-SA; 0.1235 µM): 0.4844 ± 0.0023
- relative viability (MES-SA; 0.3704 µM): 0.342 ± 0.0046
- relative viability (MES-SA; 1.111 µM): 0.255 ± 0.02
- relative viability (MES-SA; 3.333 µM): 0.189 ± 0.0047
- relative viability (MES-SA; 10 µM): 0.1447 ± 0.0012
- relative viability (G401; 0.00017 µM): 1.07 ± 0.055
- relative viability (G401; 0.00051 µM): 1.05 ± 0.041
- relative viability (G401; 0.00152 µM): 1.04 ± 0.054
- relative viability (G401; 0.00457 µM): 0.985 ± 0.029
- relative viability (G401; 0.01372 µM): 0.943 ± 0.015
- relative viability (G401; 0.04115 µM): 0.8726 ± 0.00035
- relative viability (G401; 0.1235 µM): 0.743 ± 0.041
- relative viability (G401; 0.3704 µM): 0.463 ± 0.031
- relative viability (G401; 1.111 µM): 0.366 ± 0.02
- relative viability (G401; 3.333 µM): 0.272 ± 0.03
- relative viability (G401; 10 µM): 0.235 ± 0.0072
- relative viability (SW1353; 0.00017 µM): 1.11 ± 0.018
- relative viability (SW1353; 0.00051 µM): 1.06 ± 0.029
- relative viability (SW1353; 0.00152 µM): 1.12 ± 0.041
- relative viability (SW1353; 0.00457 µM): 1.05 ± 0.03
- relative viability (SW1353; 0.01372 µM): 1.03 ± 0.047
- relative viability (SW1353; 0.04115 µM): 0.999 ± 0.038
- relative viability (SW1353; 0.1235 µM): 0.883 ± 0.029
- relative viability (SW1353; 0.3704 µM): 0.792 ± 0.023
- relative viability (SW1353; 1.111 µM): 0.672 ± 0.016
- relative viability (SW1353; 3.333 µM): 0.616 ± 0.033
- relative viability (SW1353; 10 µM): 0.511 ± 0.016
- relative viability (KHOS-240S; 0.00017 µM): 1.08 ± 0.024
- relative viability (KHOS-240S; 0.00051 µM): 1.11 ± 0.029
- relative viability (KHOS-240S; 0.00152 µM): 1.08 ± 0.058
- relative viability (KHOS-240S; 0.00457 µM): 1.08 ± 0.012
- relative viability (KHOS-240S; 0.01372 µM): 1.07 ± 0.039
- relative viability (KHOS-240S; 0.04115 µM): 0.845 ± 0.047
- relative viability (KHOS-240S; 0.1235 µM): 0.511 ± 0.01
- relative viability (KHOS-240S; 0.3704 µM): 0.249 ± 0.029
- relative viability (KHOS-240S; 1.111 µM): 0.188 ± 0.012
- relative viability (KHOS-240S; 3.333 µM): 0.0642 ± 0.0041
- relative viability (KHOS-240S; 10 µM): 0.0639 ± 0.011
- relative viability (SW982; 0.00017 µM): 1.06 ± 0.043
- relative viability (SW982; 0.00051 µM): 1.07 ± 0.051
- relative viability (SW982; 0.00152 µM): 1.08 ± 0.0098
- relative viability (SW982; 0.00457 µM): 1.07 ± 0.025
- relative viability (SW982; 0.01372 µM): 1.08 ± 0.029
- relative viability (SW982; 0.04115 µM): 0.918 ± 0.08
- relative viability (SW982; 0.1235 µM): 0.53 ± 0.017
- relative viability (SW982; 0.3704 µM): 0.292 ± 0.023
- relative viability (SW982; 1.111 µM): 0.211 ± 0.019
- relative viability (SW982; 3.333 µM): 0.161 ± 0.0021
- relative viability (SW982; 10 µM): 0.177 ± 0.0064
- relative viability (RD-ES; 0.00017 µM): 0.988 ± 0.038
- relative viability (RD-ES; 0.00051 µM): 1.02 ± 0.035
- relative viability (RD-ES; 0.00152 µM): 0.993 ± 0.035
- relative viability (RD-ES; 0.00457 µM): 0.972 ± 0.025
- relative viability (RD-ES; 0.01372 µM): 0.949 ± 0.024
- relative viability (RD-ES; 0.04115 µM): 0.825 ± 0.019
- relative viability (RD-ES; 0.1235 µM): 0.705 ± 0.022
- relative viability (RD-ES; 0.3704 µM): 0.602 ± 0.014
- relative viability (RD-ES; 1.111 µM): 0.5 ± 0.022
- relative viability (RD-ES; 3.333 µM): 0.3989 ± 0.0033
- relative viability (RD-ES; 10 µM): 0.334 ± 0.021
- relative viability (VA-ES-BJ; 0.00017 µM): 1.1 ± 0.043
- relative viability (VA-ES-BJ; 0.00051 µM): 1.09 ± 0.031
- relative viability (VA-ES-BJ; 0.00152 µM): 1.08 ± 0.013
- relative viability (VA-ES-BJ; 0.00457 µM): 1.03 ± 0.015
- relative viability (VA-ES-BJ; 0.01372 µM): 0.953 ± 0.012
- relative viability (VA-ES-BJ; 0.04115 µM): 0.78 ± 0.021
- relative viability (VA-ES-BJ; 0.1235 µM): 0.565 ± 0.0094
- relative viability (VA-ES-BJ; 0.3704 µM): 0.318 ± 0.036
- relative viability (VA-ES-BJ; 1.111 µM): 0.198 ± 0.0082
- relative viability (VA-ES-BJ; 3.333 µM): 0.187 ± 0.017
- relative viability (VA-ES-BJ; 10 µM): 0.165 ± 0.0077

Reference: the supplement of paper PMC10883282
